# Assay results from article PMC9953701 (Biomedicines, 2023).
# Read-outs that look alike come from different tables or passages of the source. Positions of bridges follow the written chain, without caps; N, C: chain ends. Residues, ends and D or L forms follow the SMILES beside them.
# Tests used:
# [1] = test system: Candida albicans ATCC 90028; format: cell-based; conditions: C. albicans; Control: two-step microdilution assay in Tris buffer 10 mM without salts; median of triplicates
# Protocol: (§1) The three bacterial strains—Escherichia coli ATCC 25922, Pseudomonas aeruginosa ATCC 27853, and Staphylococcus aureus ATCC 29213—as well as the fungal strain Candida albicans ATCC 90028 were provided by the Department of Clinical Bacteriology, Lund University Hospital. Bacillus subtilis CCUG 163B^T and Bacillus cereus CCUG 7414^T were obtained from the Department of Molecular Sciences, Swedish University of Agricultural Sciences.
# (§2) Antimicrobial activities of the peptides were evaluated using the two-step microdilution assay, which is designed for testing AMPs without activity-inhibiting components. Briefly, bacteria were grown to the mid-logarithmic phase at 37 °C in 3% (w/v) tryptic soy broth (TSB) (Merck KGaA, Darmstadt, Germany). The microbial culture was washed twice by centrifugation and resuspension in 10 mM Tris buffer (pH 7.4 at 37 °C, adjusted by HCl). The microbial suspension was quantified by OD600, diluted, and transferred to 96-well untreated polystyrene microplates prepared with 2-fold serial dilutions of the peptides using 50,000 bacteria per well (all dilutions in Tris buffer). These were incubated for 5 h at 37 °C, after which 5 µL of 20% (w/v) TSB was added to each well and the microplates were re-incubated for an additional 6–12 h (depending on the growth rate of each organism). All MICs presented are the medians from triplicate experiments performed independently.
# (§3) A two-step assay was supplemented with a physiological concentration of salts and diluted human serum and the MIC of the peptides was evaluated as in 4.6.
# [2] = test system: Pseudomonas aeruginosa ATCC 27853; format: cell-based; conditions: P. aeruginosa; Control: two-step microdilution assay in Tris buffer 10 mM without salts; median of triplicates
# Protocol: as §1, §2, §3
# [3] = test system: Staphylococcus aureus ATCC 29213; format: cell-based; conditions: S. aureus; Control: two-step microdilution assay in Tris buffer 10 mM without salts; median of triplicates
# Protocol: as §1, §2, §3
# [4] = test system: Salmonella enterica serovar Typhimurium DA6192 wild type and LL-37-resistant mutants (waaY, phoP); test: MIC against LL-37-resistant strains in buffer conditions; format: cell-based; parameters: unit not given here; conditions: 20 mM sodium phosphate buffer with 0.1% TSB, 16 to 20 h, 37 °C
# Protocol: (§4) The LL-37 resistant mutants (DA22427 and DA23307) used in this study were derived from Salmonella enterica serovar Typhimurium DA6192, wild-type and cyclotides-resistant mutants (DA54114 and DA57107) were derived from E. coli MG1655 (wild type) and were kindly provided by Department of Medical Biochemistry and Microbiology, Uppsala University.
# (§5) MIC measurements were performed in 20 mM sodium phosphate buffer (PBS), supplemented with 0.1% TSB in 96-well plates (round bottom, Nunc A/S, Roskilde, Denmark) in a total volume of 100 µL. The overnight cultures were diluted 5 × 10^5 CFU/mL in the same medium and 90 µL was transferred into the plates containing 10 µL of 2-fold diluted peptides. […] At least two independent experiments were performed with two technical replicates. In cyclotides, resistant mutant average MIC was reported.
# [5] = test system: E. coli MG1655 wild type and cyclotides-resistant mutants; test: MIC against cyclotide-resistant strains in buffer conditions; format: cell-based, Escherichia coli; parameters: unit not given here
# Protocol: as §4, §5
# [6] = test system: Bacillus cereus CCUG 7414T; format: cell-based; conditions: CCUG 7414, 24 h
# Source text: as §1
# (§6) The standard broth microdilution assay was utilized to assess the MIC of designed peptides according to the guidelines of the Clinical and Laboratory Standards Institute (CLSI). Briefly, bacteria were grown in unbuffered Mueller–Hinton Broth (MHB, VWR International, Leuven, Belgium) as well as buffered (containing 50 mM NaHCO3) medium to the mid-logarithmic phase and were quantified by OD600. The bacterial suspension was diluted in the same medium to reach a final density of 1 × 10^6 colony-forming unit per milliliter (CFU/mL). A volume of 50 µL of the bacterial suspension was added to 96-well plates containing 50 µL of MHB in the absence (viability control) or the presence of the peptides at different concentrations (0.625–80 µM). […] MIC values were derived from 3 sets of independent experiments with different bacterial cultures.
# [7] = test system: Bacillus subtilis CCUG 163BT; format: cell-based; conditions: CCUG 163, 24 h
# Source text: as §1, §6
# [8] = target: T1, aureolysin from S. aureus (Staphylococcus aureus, UniProt P81177); test: Stability in the presence of the protease aureolysin; format: in vitro ADME; conditions: peptide:enzyme 200:1, 37 °C, RP-HPLC-MS
# T1 construct: purchased
# Protocol: Peptide stability was also assayed in commercially available Gram-positive, S. aureus protease, aureolysin. […] All the samples were then incubated at 37 °C at different incubation times. The reaction was quenched by acidifying with 5 µL of 0.1% formic acid. The samples were analyzed on MS coupled to RP-HPLC.
# [9] = Liposome leakage assay (carboxyfluorescein efflux); conditions: E. coli lipid liposomes versus POPC/cholesterol liposomes, 45 min, 37 °C
# Protocol: The liposome leakage assay was performed as described previously. In brief, the following lipids/lipid mixture was used: Escherichia coli polar lipid extract or 1-palmitoyl-2-oleoyl-sn-glycerol-3-phosphocoline1-palmitoyl-2-oleoyl-sn-glycerol (POPC, both from Avanti Polar Lipids, Alabaster, US-AL) and cholesterol (Sigma Aldrich). The lipid bilayers were formed on round-bottom flask walls by dissolving lipids in chloroform was evaporated under a flow of N2 and the lipid bilayer was placed in a vacuum overnight. Lipid bilayers were re-suspended in an aqueous solution of 100 mM 5(6)-carboxyfluorescein in 10 mM Tris buffer. […] Membrane permeability was measured by monitoring carboxyfluorescein efflux from the liposomes to the external low-concentration environment, resulting in loss of self-quenching and an increased fluorescence signal with excitation and emission wavelengths of 492 and 517 nm, respectively. […] The effect on liposome permeability for each peptide concentration was monitored for 45 min, at which point leakage had largely subsided. […] The EC50 values are (when applicable) calculated using sigmoidal dose–response curves, with the leakage percentage (0–100 constraints) as a function of the peptide concentration (log10), using GraphPad Prism.
# [10] = test system: Bacillus subtilis CCUG 163BT; format: cell-based; conditions: CCUG 163, 5 h
# Protocol: as §1, §2
# [11] = test system: Escherichia coli ATCC 25922; format: cell-based; conditions: ATCC 25922, 24 h
# Source text: as §1, §6
# [12] = test system: Pseudomonas aeruginosa ATCC 27853; format: cell-based; conditions: ATCC 27853, 24 h
# Source text: as §1, §6
# [13] = test system: Staphylococcus aureus ATCC 29213; format: cell-based; conditions: ATCC 29213, 24 h
# Source text: as §1, §6
# [14] = S. typhimurium phoP LL-37-resistant mutant
# [15] = S. typhimurium waaY LL-37-resistant mutant
# T1 sequence (P81177 209-509): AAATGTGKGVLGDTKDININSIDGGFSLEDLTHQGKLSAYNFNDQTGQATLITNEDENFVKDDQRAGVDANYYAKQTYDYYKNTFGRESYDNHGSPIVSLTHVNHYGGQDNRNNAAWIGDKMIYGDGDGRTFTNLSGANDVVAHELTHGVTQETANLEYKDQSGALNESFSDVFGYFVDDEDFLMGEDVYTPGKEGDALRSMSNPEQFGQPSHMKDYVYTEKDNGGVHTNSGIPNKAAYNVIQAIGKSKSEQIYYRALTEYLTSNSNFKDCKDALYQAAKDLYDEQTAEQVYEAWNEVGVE
smiles,measurement,setting,value
CC[C@H](C)[C@@H]1NC(=O)[C@H](CCCNC(=N)N)NC(=O)[C@@H]2CSSC[C@H](NC(=O)[C@H](CCCCN)NC(=O)[C@H]([C@@H](C)CC)NC(=O)[C@H](CCCNC(=N)N)NC(=O)[C@H](CCCCN)NC(=O)[C@H](C(C)C)NC(=O)[C@H]([C@@H](C)CC)NC(=O)[C@H](CCCNC(=N)N)NC(=O)[C@H](CCCCN)NC(=O)CNC(=O)CNC(=O)[C@@H]3CCCN3C(=O)CNC(=O)[C@H](CCCNC(=N)N)NC(=O)[C@H](CC(C)C)NC(=O)[C@H](Cc3ccccc3)NC(=O)[C@H](C)NC(=O)[C@H](CCCCN)NC1=O)C(=O)N[C@@H](Cc1ccccc1)C(=O)N[C@@H](CC(C)C)C(=O)N[C@@H](CCCNC(=N)N)C(=O)NCC(=O)N1CCC[C@H]1C(=O)NCC(=O)NCC(=O)N[C@@H](CCCCN)C(=O)N[C@@H](CCCNC(=N)N)C(=O)N[C@@H]([C@@H](C)CC)C(=O)N[C@@H](C(C)C)C(=O)N2 [cd4-CCPP] (cyclo(CFLRGPGGKRIVCRIKAFLRGPGGKRIVKRIK); disulfide 1-13),MIC,[1],0.625 µM
same,MIC,[2],0.625 µM
same,MIC,[3],0.625 µM
same,MIC,[4]; S. typhimurium WT (DA6192),2.5
same,MIC,[4]; [14],1.25
same,MIC,[4]; [15],1.25
same,MIC,"[5]; E. coli DA54114 cyclotide-resistant mutant, sodium phosphate buffer with 0.1% TSB, average MIC",0.25
same,MIC,"[5]; E. coli DA57107 cyclotide-resistant mutant, sodium phosphate buffer with 0.1% TSB, average MIC",0.25
same,MIC,"[5]; E. coli WT (MG1655), 20 mM sodium phosphate buffer with 0.1% TSB, 16 to 20 h, 37 °C",0.37
same,MIC,[6],> 40 µM
same,MIC,[7],> 40 µM
same,time for which the peptide was stable in aureolysin (stable for up to),[8],≥ 8 h
same,bacterial target selectivity relative to LL-37 (factor),[9],6 fold
CC[C@H](C)[C@@H]1NC(=O)[C@H](CCCNC(=N)N)NC(=O)[C@@H]2CSSC[C@H](NC(=O)[C@H](CCCCN)NC(=O)[C@H]([C@@H](C)CC)NC(=O)[C@H](CCCNC(=N)N)NC(=O)[C@H](CCCCN)NC(=O)[C@H](C(C)C)NC(=O)[C@H]([C@@H](C)CC)NC(=O)[C@H](CCCNC(=N)N)NC(=O)[C@H](CCCCN)NC(=O)CNC(=O)CNC(=O)[C@H](C)NC(=O)CNC(=O)[C@H](CCCNC(=N)N)NC(=O)[C@H](CC(C)C)NC(=O)[C@H](Cc3ccccc3)NC(=O)[C@H](C)NC(=O)[C@H](CCCCN)NC1=O)C(=O)N[C@@H](Cc1ccccc1)C(=O)N[C@@H](CC(C)C)C(=O)N[C@@H](CCCNC(=N)N)C(=O)NCC(=O)N[C@@H](C)C(=O)NCC(=O)NCC(=O)N[C@@H](CCCCN)C(=O)N[C@@H](CCCNC(=N)N)C(=O)N[C@@H]([C@@H](C)CC)C(=O)N[C@@H](C(C)C)C(=O)N2 [cd4-CC] (cyclo(CFLRGAGGKRIVCRIKAFLRGAGGKRIVKRIK); disulfide 1-13),MIC,[4]; S. typhimurium WT (DA6192),1.25
same,MIC,[4]; [14],1.25
same,MIC,[4]; [15],2.5
same,MIC,[10],0.625 µM
same,MIC,[6],> 40 µM
same,MIC,[7],> 40 µM
same,MIC,[11],5 µM
same,MIC,[12],5 µM
same,MIC,[13],>40 µM
